In ChEMBL document CHEMBL1201862, “PubChem BioAssay data set” (2004):
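A five-concentration, 48-hour dose response in 96-well plates underlies each endpoint, interpolated linearly between surrounding concentrations. The concentration for 50% growth inhibition is given as GI50.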 Activity calls are given as the source filed them. Cut-off read from the data, not from the text of the source: active = GI50 up to about 1.1 µM and inactive = higher.

How the values were obtained:
Assay in all cases: NCI-60 cell line screen, 48 h
SF-295 = system: SF-295
UO-31 = system: UO-31
NCI-H226 = system: NCI-H226
SW-620 = system: SW-620
MOLT-4 = system: MOLT-4
SF-268 = system: SF-268
CCRF-CEM = system: CCRF-CEM
DU-145 = system: DU-145
786-0 = system: 786-0
OVCAR-4 = system: OVCAR-4
A549 = system: A549
RXF 393 = system: RXF 393
K562 = system: K562
SR = system: SR
ACHN = system: ACHN
SNB-75 = system: SNB-75
MDA-N = system: MDA-N
RPMI-8226 = system: RPMI-8226

Measured: GI50

CCOc1cccc(-c2cc(O)c3cc4c(cc3n2)OCO4)c1
active: SF-295 0.0735 µM | UO-31 0.339 µM | NCI-H226 0.438 µM | SW-620 0.0573 µM | MOLT-4 0.296 µM | SF-268 0.466 µM | CCRF-CEM 0.084 µM | DU-145 0.335 µM | 786-0 0.197 µM | A549 0.378 µM | RXF 393 0.0953 µM | K562 0.0516 µM | SR 0.0476 µM | ACHN 0.51 µM | SNB-75 0.0948 µM | MDA-N 0.0214 µM | RPMI-8226 0.318 µM
inactive: OVCAR-4 82 µM

CC(C)(C)C(=O)C(C(=O)c1ccccc1)C(=O)C(C)(C)C
inactive: SF-295 > 100 µM | UO-31 > 100 µM | NCI-H226 > 100 µM | SW-620 > 100 µM | MOLT-4 > 100 µM | SF-268 > 100 µM | CCRF-CEM > 100 µM | DU-145 > 100 µM | 786-0 > 100 µM | OVCAR-4 64.7 µM | A549 > 100 µM | RXF 393 > 100 µM | K562 > 100 µM | ACHN > 100 µM | SNB-75 > 100 µM | MDA-N > 100 µM | RPMI-8226 > 100 µM

NC1=C(N2CCCCC2)C(=O)NC2=N/C(=C\c3ccco3)C(=O)N21
inactive: SF-295 > 100 µM | UO-31 > 100 µM | NCI-H226 > 100 µM | SW-620 > 100 µM | MOLT-4 > 100 µM | SF-268 > 100 µM | CCRF-CEM > 100 µM | DU-145 > 100 µM | 786-0 > 100 µM | OVCAR-4 > 100 µM | A549 > 100 µM | RXF 393 > 100 µM | K562 > 100 µM | SR 88.3 µM | ACHN > 100 µM | SNB-75 > 100 µM | MDA-N > 100 µM | RPMI-8226 > 100 µM

NC1CC=C(COC(=O)C(O)(c2ccccc2)C2CC2)CC1 (configuration not stated)
inactive: SF-295 > 100 µM | UO-31 > 100 µM | NCI-H226 > 100 µM | SW-620 > 100 µM | MOLT-4 > 100 µM | SF-268 > 100 µM | DU-145 > 100 µM | 786-0 > 100 µM | A549 > 100 µM | RXF 393 > 100 µM | SR > 100 µM | ACHN > 100 µM | SNB-75 > 100 µM | MDA-N > 100 µM | RPMI-8226 > 100 µM

C=C1CCC2[C@](C)(CCC[C@]2(C)C(=O)O)[C@@H]1CCc1ccoc1 (some centres not stated)
inactive: SF-295 47.5 µM | UO-31 36.5 µM | NCI-H226 20.6 µM | SW-620 53.7 µM | MOLT-4 32.5 µM | SF-268 50.4 µM | CCRF-CEM 40.7 µM | DU-145 43.5 µM | 786-0 48.6 µM | OVCAR-4 48.6 µM | A549 34.5 µM | RXF 393 36.2 µM | K562 53.5 µM | SR 27 µM | ACHN 41.7 µM | SNB-75 67.3 µM | MDA-N 61.8 µM | RPMI-8226 44.7 µM

CC1(C)CC[C@]2(C(=O)O)CC[C@]3(C)C(=CCC4=C5C[C@H](O)[C@H](O)[C@@](C)(CO)[C@@]5(C)CC[C@]43C)[C@@H]2C1
active: CCRF-CEM 0.944 µM
inactive: SF-295 33.7 µM | UO-31 47.1 µM | SW-620 95.1 µM | MOLT-4 47.3 µM | SF-268 51.4 µM | DU-145 33.4 µM | 786-0 31.8 µM | OVCAR-4 36.7 µM | A549 38.5 µM | K562 62.8 µM | SR > 100 µM | ACHN > 100 µM | SNB-75 26.7 µM | MDA-N 47.4 µM | RPMI-8226 43.8 µM
